Measured values: US20200352905A1, “6-(2,4-DICHLOROPHENYL)-5-[4-[(3S)-1-(3-FLUOROPROPYL)PYRROLIDIN-3-YL]OXYPHENYL]-8,9-DIHYDRO-7H-BENZO[7]ANNULENE-2-CARBOXYLIC ACID FOR USE IN METASTATIC OR ADVANCED BREAST CANCER PATIENTS” (SANOFI, priority 2019, published 2020)
Entries after “also recorded” stand apart in the source; their conditions may differ.

Test: Phase 1/2 study TED14856 Part A (dose escalation): safety, DLT, TEAEs
Type: in vivo
Experimental: This is an open-label, non-comparative, dose escalation and dose expansion, safety, efficacy, PK and PD evaluation study of compound (1) administered orally as monotherapy.
Dose escalation is initiated with a once daily (QD) schedule with a starting dose of 20 mg/day. Dose escalation is expected to proceed according to the Table A below. Intra-patient dose escalation is not permitted.
Part A of this study is designed using the 3+3 concept: 3 to 6 patients are treated at each dose level, depending on DLTs observed in the first 3 patients. If one of the first 3 evaluable patients experiences DLT during Cycle 1, this cohort is expanded with a total of up to 6 patients. If less than 1 out of 3 patients or less than 2 out of 6 patients experience DLTs at a given dose level, the dose escalation is proceeded to the next dose level.
For the QD regimen, during Cycle 1, one dose is taken on Day 1 in fasting condition, no dose on Day 2 and repeated administration starts from Day 3. On Day 3 only, the dose is taken in fed condition for a food effect evaluation, and then all subsequent administrations are taken in fasted condition, and at approximately the same time each day (±3 hours). From the conclusions drawn with the initial QD dose regimen, patients treated with other dose regimens are allowed to take Compound (1) in fasted or fed condition. For the BID regimen, the 600 mg dose is split in two drug administrations: 300 mg taken two times a day 12 hours apart (i.e. 2×300 mg)±1 hour with or without food (with one dose only taken in the morning on Day 1, no dose on Day 2 and then repeated BID dosing from Day 3).
Incidence of study treatment-related DLTs at Cycle 1 (Day 1 to Day 28). DLT is defined as the occurrence of any of the following treatment-emergent adverse events (TEAEs) related to the study therapy using NCI-CTCAE (v4.03): • Any Grade ≥3 non-hematological toxicity, except: • Grade 3 nausea and vomiting resolving to Grade ≤1 within 48 hours, with or without adequate antiemetic treatment, • Grade 3 diarrhea, if controlled with adequate antidiarrheal therapy and lasting less than 48 hours. • Any Grade ≥3 hematological toxicity, except • Grade 3 anemia, • Grade 4 neutropenia <7 days, • Grade 3 neutropenia without fever or infection, • Grade 3 thrombocytopenia without bleeding. • Any elevated total serum bilirubin >2×ULN. • Any toxicity related to study treatment, resulting in omission of the study treatment for 7 days or more during Cycle 1. • A TEAE that in the opinion of the study committee is possibly or probably study treatment-related and is of potential clinical significance such that further dose escalation would expose patients to unacceptable risk.
These TEAEs are considered as study treatment-related in the absence of evidence to the contrary and if not related to disease progression. If multiple toxicities are seen, the presence of DLT will be based on the most severe experienced toxicity. At the end of Cycle 1, each patient must be assessed by the Investigator as to whether or not the patient experienced DLT, and this information must be recorded within the appropriate screen of the electronic case report forms (eCRFs) and an electronic DLT notification (either DLT or not) is sent to the Sponsor. Patients can continue the treatment after resolution (Grade 1) of the adverse event (AE) or to their baseline status. Patients need to complete at least 75% of the intended doses at Cycle 1 to be evaluable and shall have ^18FES-PET scans evaluable at baseline and between Day 11 and Day 15 to be evaluable for DLTs in Part A.
Safety population includes all patients exposed to at least one dose of the study treatment.
Study treatment-related DLTs occurring during Cycle 1 are assessed and analyzed on the DLT-evaluable population. In addition, AEs meeting DLT criteria occurring in any additional cycle are assessed and analyzed on the safety population. […]

For `O=C(O)c1ccc2c(c1)CCCC(c1ccc(Cl)cc1Cl)=C2c1ccc(O[C@H]2CCN(CCCF)C2)cc1` [compound (1), 6-(2,4-dichlorophenyl)-5-[4-[(3S)-1-(3-fluoropropyl)pyrrolidin-3-yl]oxyphenyl]-8,9-dihydro-7H-benzo[7]annulene-2-carboxylic acid], the “Patients with related TEAE: Urinary tract infection” value (Part A, N=16) was 0 n, the “maximum tolerated dose (MTD)” value (Part A, up to 600 mg QD) was “not reached; also recorded: no MTD observed” and the “patients who died during study period” value (Part A, 3 disease progression, 1 unknown reason) was 4 patients. For the same molecule, the “patients with serious TEAEs” value (Part A, all considered not associated with compound (1)) was 3 patients, the “Patients with Gr3 TEAE: Abdominal pain upper” value (female, human, in vivo) was 0 n and the “Patients with Gr3 TEAE: Arthralgia” value (female, human, in vivo) was 0 n. The “Patients with Gr3 TEAE: Asthenia” value (female, human, in vivo) was 0 n, the “Patients with Gr3 TEAE: Constipation” value (female, human, in vivo) was 0 n and the “Patients with Gr3 TEAE: Cough” value (female, human, in vivo) was 0 n. For the same molecule, the “Patients with Gr3 TEAE: Decreased appetite” value (female, human, in vivo) was 0 n, the “Patients with Gr3 TEAE: Diarrhea” value (female, human, in vivo) was 0 n and the “Patients with Gr3 TEAE: Dry skin” value (female, human, in vivo) was 0 n. The “Patients with Gr3 TEAE: Dysgeusia” value (female, human, in vivo) was 0 n, the “Patients with Gr3 TEAE: Hot flush” value (female, human, in vivo) was 0 n and the “Patients with Gr3 TEAE: Hypertension” value (female, human, in vivo) was 0 n. For the same molecule, the “Patients with Gr3 TEAE: Hypoaesthesia” value (female, human, in vivo) was 0 n, the “Patients with Gr3 TEAE: Musculoskeletal chest pain” value (female, human, in vivo) was 0 n and the “Patients with Gr3 TEAE: Myalgia” value (female, human, in vivo) was 0 n. For the same molecule, the “Patients with Gr3 TEAE: Nasopharyngitis” value (female, human, in vivo) was 0 n, the “Patients with Gr3 TEAE: Nausea” value (female, human, in vivo) was 0 n and the “Patients with Gr3 TEAE: Night sweat” value (female, human, in vivo) was 0 n. For the same molecule, the “Patients with Gr3 TEAE: Pain” value (female, human, in vivo) was 0 n, the “Patients with Gr3 TEAE: Photophobia” value (female, human, in vivo) was 0 n and the “Patients with Gr3 TEAE: Rash” value (female, human, in vivo) was 0 n. The “Patients with Gr3 TEAE: Upper respiratory tract infection” value (female, human, in vivo) was 0 n, the “Patients with Gr3 TEAE: Vomiting” value (female, human, in vivo) was 0 n and the “Patients with related Gr3 TEAE: ALL” value (female, human, in vivo) was 0 n. For the same molecule, the “Patients with related Gr3 TEAE: Abdominal pain upper” value (female, human, in vivo) was 0 n, the “Patients with related Gr3 TEAE: Arthralgia” value (female, human, in vivo) was 0 n and the “Patients with related Gr3 TEAE: Asthenia” value (female, human, in vivo) was 0 n. For the same molecule, the “Patients with related Gr3 TEAE: Back pain” value (female, human, in vivo) was 0 n, the “Patients with related Gr3 TEAE: Constipation” value (female, human, in vivo) was 0 n and the “Patients with related Gr3 TEAE: Cough” value (female, human, in vivo) was 0 n. The “Patients with related Gr3 TEAE: Decreased appetite” value (female, human, in vivo) was 0 n, the “Patients with related Gr3 TEAE: Diarrhea” value (female, human, in vivo) was 0 n and the “Patients with related Gr3 TEAE: Dry skin” value (female, human, in vivo) was 0 n. For the same molecule, the “Patients with related Gr3 TEAE: Dysgeusia” value (female, human, in vivo) was 0 n, the “Patients with related Gr3 TEAE: Dyspnoea” value (female, human, in vivo) was 0 n and the “Patients with related Gr3 TEAE: Fatigue” value (female, human, in vivo) was 0 n. The “Patients with related Gr3 TEAE: Hot flush” value (female, human, in vivo) was 0 n, the “Patients with related Gr3 TEAE: Hypertension” value (female, human, in vivo) was 0 n and the “Patients with related Gr3 TEAE: Hypoaesthesia” value (female, human, in vivo) was 0 n. The “Patients with related Gr3 TEAE: Musculoskeletal chest pain” value (female, human, in vivo) was 0 n, the “Patients with related Gr3 TEAE: Myalgia” value (female, human, in vivo) was 0 n and the “Patients with related Gr3 TEAE: Nasopharyngitis” value (female, human, in vivo) was 0 n. For the same molecule, the “Patients with related Gr3 TEAE: Nausea” value (female, human, in vivo) was 0 n, the “Patients with related Gr3 TEAE: Night sweat” value (female, human, in vivo) was 0 n and the “Patients with related Gr3 TEAE: Pain” value (female, human, in vivo) was 0 n. For the same molecule, the “Patients with related Gr3 TEAE: Photophobia” value (female, human, in vivo) was 0 n, the “Patients with related Gr3 TEAE: Rash” value (female, human, in vivo) was 0 n and the “Patients with related Gr3 TEAE: Upper respiratory tract infection” value (female, human, in vivo) was 0 n. For the same molecule, the “Patients with related Gr3 TEAE: Urinary tract infection” value (female, human, in vivo) was 0 n, the “Patients with related Gr3 TEAE: Vomiting” value (female, human, in vivo) was 0 n and the “Patients with related TEAE: Cough” value (female, human, in vivo) was 0 n. The “Patients with related TEAE: Dysgeusia” value (female, human, in vivo) was 0 n, the “Patients with related TEAE: Hypoaesthesia” value (female, human, in vivo) was 0 n and the “Patients with related TEAE: Musculoskeletal chest pain” value (female, human, in vivo) was 0 n. For the same molecule, the “Patients with related TEAE: Nasopharyngitis” value (female, human, in vivo) was 0 n, the “Patients with related TEAE: Rash” value (female, human, in vivo) was 0 n and the “Patients with related TEAE: Upper respiratory tract infection” value (female, human, in vivo) was 0 n. For the same molecule, the “serious TEAEs reported” value (female, human, in vivo) was 4.
